Reference: patent US20220151962A1, “NOVEL INHIBITORS OF HISTONE DEACETYLASE 10” (Deutsches Krebsforschungszentrum, priority 2019, published 2022)

Legend:
HDAC1 [1] = target: T1, HDAC1 (Homo sapiens, UniProt Q13547); assay: HDAC1 (ZMAL) fluorogenic activity assay; assay type: biochemical; conditions: read-out: HDAC1 (ZMAL) percent enzyme inhibition
T1 construct: purchased BPS Bioscience 50051

HDAC6 [2] = target: T2, HDAC6 (Homo sapiens, UniProt Q9UBN7); assay: HDAC6 (ZMAL) fluorogenic activity assay; assay type: biochemical; conditions: for inhibition at 1 µM / inhibition at 10 µM: read-out: HDAC6 (ZMAL) percent enzyme inhibition
T2 construct: purchased BPS Bioscience 50006
T2 sequence (Q9UBN7 1-1215): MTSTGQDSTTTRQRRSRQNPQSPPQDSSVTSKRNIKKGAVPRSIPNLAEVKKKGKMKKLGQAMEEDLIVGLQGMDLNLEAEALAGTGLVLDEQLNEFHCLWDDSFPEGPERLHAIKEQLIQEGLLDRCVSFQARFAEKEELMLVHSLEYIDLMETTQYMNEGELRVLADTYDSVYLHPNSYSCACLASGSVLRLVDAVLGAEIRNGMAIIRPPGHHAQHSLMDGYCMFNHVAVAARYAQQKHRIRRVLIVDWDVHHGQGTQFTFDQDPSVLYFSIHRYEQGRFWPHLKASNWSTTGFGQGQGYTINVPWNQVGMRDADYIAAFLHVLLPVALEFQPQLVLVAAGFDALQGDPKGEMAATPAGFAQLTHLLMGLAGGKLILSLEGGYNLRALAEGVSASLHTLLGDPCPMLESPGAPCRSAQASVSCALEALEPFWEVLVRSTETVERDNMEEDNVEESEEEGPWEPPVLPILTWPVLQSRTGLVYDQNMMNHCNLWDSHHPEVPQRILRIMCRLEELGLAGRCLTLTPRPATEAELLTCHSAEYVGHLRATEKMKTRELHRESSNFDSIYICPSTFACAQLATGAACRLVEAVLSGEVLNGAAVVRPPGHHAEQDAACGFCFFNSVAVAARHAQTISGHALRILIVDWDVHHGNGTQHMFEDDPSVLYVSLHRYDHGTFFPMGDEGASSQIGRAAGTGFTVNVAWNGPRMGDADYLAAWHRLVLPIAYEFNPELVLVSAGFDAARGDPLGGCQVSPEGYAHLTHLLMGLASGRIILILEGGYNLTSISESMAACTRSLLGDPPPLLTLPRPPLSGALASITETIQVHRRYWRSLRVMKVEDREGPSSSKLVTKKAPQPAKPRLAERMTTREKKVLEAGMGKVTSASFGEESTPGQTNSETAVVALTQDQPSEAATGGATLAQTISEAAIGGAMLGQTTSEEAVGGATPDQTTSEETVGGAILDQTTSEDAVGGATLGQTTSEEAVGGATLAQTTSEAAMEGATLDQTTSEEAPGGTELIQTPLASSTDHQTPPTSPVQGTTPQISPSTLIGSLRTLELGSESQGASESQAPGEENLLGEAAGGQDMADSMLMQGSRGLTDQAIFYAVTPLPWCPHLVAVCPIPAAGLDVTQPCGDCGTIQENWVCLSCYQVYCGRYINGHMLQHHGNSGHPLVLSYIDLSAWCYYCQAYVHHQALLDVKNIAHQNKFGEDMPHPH

zebrafish HDAC10 = target: T3, zebrafish HDAC10 (Danio rerio, UniProt F1QCV2); assay: Zebrafish HDAC10 assay (zHDAC10), Ac-spermidine-AMC substrate; assay type: biochemical
T3 sequence (F1QCV2 1-675): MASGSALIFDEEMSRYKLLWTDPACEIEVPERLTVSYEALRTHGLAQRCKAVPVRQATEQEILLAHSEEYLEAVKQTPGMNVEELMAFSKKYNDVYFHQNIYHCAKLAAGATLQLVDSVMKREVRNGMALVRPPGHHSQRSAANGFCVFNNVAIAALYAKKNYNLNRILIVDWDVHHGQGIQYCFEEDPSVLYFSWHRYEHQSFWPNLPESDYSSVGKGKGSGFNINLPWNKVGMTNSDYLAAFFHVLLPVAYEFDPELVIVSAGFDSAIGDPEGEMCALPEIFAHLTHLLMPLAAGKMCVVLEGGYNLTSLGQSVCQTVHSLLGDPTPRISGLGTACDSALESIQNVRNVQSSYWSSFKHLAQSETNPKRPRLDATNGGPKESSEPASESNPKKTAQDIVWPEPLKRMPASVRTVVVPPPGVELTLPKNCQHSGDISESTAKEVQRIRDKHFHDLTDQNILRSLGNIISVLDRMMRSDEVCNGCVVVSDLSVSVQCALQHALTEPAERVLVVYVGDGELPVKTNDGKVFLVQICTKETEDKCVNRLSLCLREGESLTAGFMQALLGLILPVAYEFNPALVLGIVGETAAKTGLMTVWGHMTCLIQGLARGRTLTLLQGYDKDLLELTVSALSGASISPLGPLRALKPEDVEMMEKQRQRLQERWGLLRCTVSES

HDAC8 [3] = target: T4, HDAC8 (Homo sapiens, UniProt Q9BY41); assay: HDAC8 (FDL) Fluor de Lys assay; assay type: biochemical; design: obtained from C; Romier (academic laboratory, not a vendor)
T4 sequence (Q9BY41 1-377): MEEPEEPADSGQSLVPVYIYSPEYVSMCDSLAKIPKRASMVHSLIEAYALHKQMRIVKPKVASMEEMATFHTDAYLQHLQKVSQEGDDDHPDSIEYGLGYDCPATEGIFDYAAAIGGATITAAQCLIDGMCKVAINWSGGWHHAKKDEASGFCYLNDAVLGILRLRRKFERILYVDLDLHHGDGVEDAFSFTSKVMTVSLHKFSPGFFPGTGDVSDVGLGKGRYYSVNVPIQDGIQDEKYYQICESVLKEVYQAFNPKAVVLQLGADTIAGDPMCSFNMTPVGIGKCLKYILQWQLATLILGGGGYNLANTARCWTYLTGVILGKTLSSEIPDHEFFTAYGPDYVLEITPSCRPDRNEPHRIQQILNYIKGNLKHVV

HDAC8 [4] = target: T4, HDAC8; assay: HDAC-Glo I/II assay, HDAC8; assay type: biochemical; design: purchased BPS Bioscience 50008; conditions: recombinant human HDAC8, HDAC-Glo; read-out: pIC50 HDAC8 Glo (converted)
TwinStrep-GST-HDAC10 = target: T5, TwinStrep-GST-HDAC10 (Homo sapiens, UniProt Q969S8); assay: HDAC10 TR-FRET assay (Tubastatin-AF647-Tracer displacement); assay type: binding; conditions: TR-FRET, 60 min at rt; read-out: pIC50 HDAC10 FRET (converted)
T5 construct: made in house; host or cells: Sf21 insect cells (baculovirus, pFastBac1)
T5 sequence (Q969S8 1-669): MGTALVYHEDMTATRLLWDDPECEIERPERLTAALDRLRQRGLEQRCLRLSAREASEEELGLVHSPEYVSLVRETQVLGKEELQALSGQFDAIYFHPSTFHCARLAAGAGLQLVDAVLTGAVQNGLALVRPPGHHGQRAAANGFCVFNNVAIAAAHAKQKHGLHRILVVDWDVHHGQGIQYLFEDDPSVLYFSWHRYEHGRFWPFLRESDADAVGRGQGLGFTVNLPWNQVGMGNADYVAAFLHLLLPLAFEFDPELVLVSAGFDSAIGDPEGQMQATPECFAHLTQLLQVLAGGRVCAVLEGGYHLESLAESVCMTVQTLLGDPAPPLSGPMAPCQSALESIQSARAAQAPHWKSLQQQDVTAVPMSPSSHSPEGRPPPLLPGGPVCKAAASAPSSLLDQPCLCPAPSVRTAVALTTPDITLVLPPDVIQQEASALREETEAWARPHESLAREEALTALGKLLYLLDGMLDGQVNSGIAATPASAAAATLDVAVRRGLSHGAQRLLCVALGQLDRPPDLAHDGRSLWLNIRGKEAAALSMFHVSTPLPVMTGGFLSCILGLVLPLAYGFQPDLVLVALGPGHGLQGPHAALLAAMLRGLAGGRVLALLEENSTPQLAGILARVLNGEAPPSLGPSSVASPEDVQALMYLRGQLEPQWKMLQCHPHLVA

HDAC2 = target: T6, HDAC2 (Homo sapiens, UniProt Q92769); assay: HDAC-Glo I/II assay, HDAC2; assay type: biochemical; conditions: recombinant human HDAC2, HDAC-Glo; read-out: pIC50 HDAC2 Glo (converted)
T6 construct: purchased BPS Bioscience 50002
T6 sequence (Q92769 whole entry): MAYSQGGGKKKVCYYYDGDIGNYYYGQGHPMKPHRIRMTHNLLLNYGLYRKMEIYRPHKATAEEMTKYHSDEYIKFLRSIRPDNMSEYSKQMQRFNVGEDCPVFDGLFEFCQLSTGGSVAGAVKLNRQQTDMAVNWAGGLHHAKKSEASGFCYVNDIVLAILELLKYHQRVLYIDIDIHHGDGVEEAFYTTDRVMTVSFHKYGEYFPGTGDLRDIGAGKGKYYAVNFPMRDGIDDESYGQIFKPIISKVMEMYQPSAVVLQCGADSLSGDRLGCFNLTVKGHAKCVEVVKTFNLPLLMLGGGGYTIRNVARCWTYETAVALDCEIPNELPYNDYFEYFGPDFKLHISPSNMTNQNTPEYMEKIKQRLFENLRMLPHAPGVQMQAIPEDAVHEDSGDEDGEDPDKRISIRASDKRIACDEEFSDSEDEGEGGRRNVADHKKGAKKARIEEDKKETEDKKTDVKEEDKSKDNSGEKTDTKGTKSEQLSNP

HDAC1 [5] = target: T1, HDAC1; assay: HDAC-Glo I/II assay, HDAC1; assay type: biochemical; conditions: recombinant human HDAC1, HDAC-Glo; read-out: pIC50 HDAC1 Glo (converted)
HDAC6 [6] = target: T2, HDAC6; assay: HDAC-Glo I/II assay, HDAC6; assay type: biochemical; conditions: recombinant human HDAC6, HDAC-Glo; read-out: pIC50 HDAC6 Glo (converted)
HDAC3/NcoR2 complex = target: T7, HDAC3/NcoR2 complex (Homo sapiens, UniProt O15379); assay: HDAC-Glo I/II assay, HDAC3/NcoR2 complex; assay type: biochemical; conditions: recombinant human HDAC3/NcoR2 complex, read-out: pIC50 HDAC3 Glo (converted)
T7 construct: purchased BPS Bioscience 50003
T7 sequence (O15379 whole entry): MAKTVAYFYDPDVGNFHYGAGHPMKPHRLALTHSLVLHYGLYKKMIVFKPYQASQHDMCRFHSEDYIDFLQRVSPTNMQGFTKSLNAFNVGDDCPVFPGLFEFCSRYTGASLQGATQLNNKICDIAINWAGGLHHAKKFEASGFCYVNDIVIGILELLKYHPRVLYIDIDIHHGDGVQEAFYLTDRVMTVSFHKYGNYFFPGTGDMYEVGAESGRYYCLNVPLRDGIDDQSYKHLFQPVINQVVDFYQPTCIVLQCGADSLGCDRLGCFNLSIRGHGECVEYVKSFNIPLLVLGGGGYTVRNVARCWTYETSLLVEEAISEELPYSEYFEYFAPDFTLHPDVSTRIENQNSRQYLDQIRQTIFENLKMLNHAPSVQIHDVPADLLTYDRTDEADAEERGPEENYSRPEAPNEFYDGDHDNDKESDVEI
T7 sequence (Q9Y618 395-489 partner limits assumed): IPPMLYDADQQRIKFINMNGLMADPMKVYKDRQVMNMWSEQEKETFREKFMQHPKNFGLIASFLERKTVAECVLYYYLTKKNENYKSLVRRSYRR

[7] = target: T8, HDAC10-nanoluciferase fusion in HeLa cells (Homo sapiens, UniProt Q969S8); assay: BRET intracellular target engagement assay, HDAC10
T8 sequence (Q969S8 1-669): T5 sequence (Q969S8 1-669)

T1 sequence (Q13547 whole entry): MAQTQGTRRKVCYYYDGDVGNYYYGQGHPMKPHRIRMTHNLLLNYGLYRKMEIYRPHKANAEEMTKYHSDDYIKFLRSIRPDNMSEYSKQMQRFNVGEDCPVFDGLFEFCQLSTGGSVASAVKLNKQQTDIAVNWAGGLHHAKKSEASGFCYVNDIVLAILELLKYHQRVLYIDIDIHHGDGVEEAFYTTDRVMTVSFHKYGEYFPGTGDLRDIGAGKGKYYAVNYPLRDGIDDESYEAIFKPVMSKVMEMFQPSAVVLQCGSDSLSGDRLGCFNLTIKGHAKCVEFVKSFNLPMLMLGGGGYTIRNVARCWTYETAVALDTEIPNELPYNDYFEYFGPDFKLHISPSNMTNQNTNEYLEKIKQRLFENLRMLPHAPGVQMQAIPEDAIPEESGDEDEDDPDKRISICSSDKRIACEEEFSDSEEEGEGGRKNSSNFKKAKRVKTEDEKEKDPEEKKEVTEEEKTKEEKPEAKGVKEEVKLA

Structure (SMILES)	IC50 (HDAC8 [4])	IC50 (TwinStrep-GST-HDAC10)	IC50 (HDAC2)	IC50 (HDAC1 [5])	IC50 (HDAC6 [6])	IC50 (HDAC3/NcoR2 complex)	further results
O=C(NO)C1CCN(CCCc2ccccc2)CC1 [DH53, N-Hydroxy-1-(3-phenylpropyl)-piperidine-4-carboxamide]	–	–	–	–	–	–	inhibition at 1 µM (HDAC1 [1]): 2%; inhibition at 10 µM (HDAC1 [1]): 29%; inhibition at 1 µM (HDAC6 [2]): -23%; inhibition at 10 µM (HDAC6 [2]): -3%; inhibition at 0.1 µM (zebrafish HDAC10; at 0.1 μM, read-out: zHDAC10 percent enzyme inhibition): 0%; inhibition at 1 µM (zebrafish HDAC10; at 1 μM, read-out: zHDAC10 percent enzyme inhibition): 19%; inhibition at 10 µM (zebrafish HDAC10; at 10 μM, read-out: zHDAC10 percent enzyme inhibition): 68%; inhibition at 1 µM (HDAC8 [3]; at 1 μM, read-out: HDAC8 (FDL) percent enzyme inhibition): 20%; inhibition at 10 µM (HDAC8 [3]; at 10 μM, read-out: HDAC8 (FDL) percent enzyme inhibition): 48%
O=C(NO)C1CCN(CCNCc2ccccc2)CC1 [DH79, 1-(2-(Benzylamino)ethyl)-N-hydroxypiperidine-4-carboxamide]	–	–	–	–	–	–	inhibition at 1 µM (HDAC1 [1]): 6%; inhibition at 10 µM (HDAC1 [1]): 20%; inhibition at 1 µM (HDAC6 [2]): -15%; inhibition at 10 µM (HDAC6 [2]): 0%; IC50 (zebrafish HDAC10): 0.064 ± 0.006 µM; IC50 (HDAC8 [3]): 2 ± 0.3 µM
O=C(NO)C1CCN(CCNCc2ccc(Br)cc2)CC1 [DH88, 1-(2-((4-Bromobenzyl)amino)ethyl)-N-hydroxypiperidine-4-carboxamide]	–	–	–	–	–	–	inhibition at 1 µM (HDAC1 [1]): -8%; inhibition at 10 µM (HDAC1 [1]): 10%; IC50 (HDAC6 [2]): 15 ± 4 µM; IC50 (zebrafish HDAC10): 0.037 ± 0.004 µM; IC50 (HDAC8 [3]): 0.7 ± 0.05 µM
CN(CCCC(=O)NO)CCNC(=O)c1ccccc1O [DKFZ-755, 2-Hydroxy-N-(2-((4-(hydroxyamino)-4-oxobutyl)(methyl)amino)ethyl)benzamide]	63.1 µM	0.0316 µM	> 100 µM	63.1 µM	12.6 µM	> 100 µM	–
Cc1[nH]c2ccccc2c1C(=O)NCCN(C)CCCC(=O)NO [DKFZ-756, N-(2-((4-(Hydroxyamino)-4-oxobutyl)(methyl)amino)ethyl)-2-methyl-1H-indole-3-carboxamide]	5.01 µM	0.02 µM	> 100 µM	7.94 µM	1.58 µM	~79.4 µM	–
CN(CCCC(=O)NO)CCNS(=O)(=O)c1ccccc1 [DKFZ-758, N-Hydroxy-4-(methyl(2-(phenylsulfonamido)ethyl)amino)butanamide]	6.31 µM	0.0316 µM	> 100 µM	25.1 µM	6.31 µM	> 100 µM	–
CN(CCCC(=O)NO)CCNC(=O)c1ccc2ccccc2c1 [DKFZ-769, N-(2-((4-(Hydroxyamino)-4-oxobutyl)(methyl)amino)ethyl)-2-naphthamide]	1.58 µM	0.00501 µM	5.01 µM	2.51 µM	1.26 µM	~39.8 µM	–
CN(CCCC(=O)NO)CCc1nc2ccccc2[nH]1 [DKFZ-773, 4-((2-(Benzimidazol-2-yl)ethyl)(methyl)amino)-N-hydroxybutanamide]	5.01 µM	0.00631 µM	25.1 µM	10 µM	1 µM	> 100 µM	IC50 [7]: 0.126 µM; HDAC10/6 fold selectivity (BRET) ([7]; HDAC10 over HDAC6, from BRET): 315 fold
CN(CCCC(=O)NO)CCNC(=O)c1ccc(O)c2ccccc12 [DKFZ-776, 4-Hydroxy-N-(2-((4-(hydroxyamino)-4-oxobutyl)(methyl)amino)ethyl)-1-naphthamide]	2 µM	0.00501 µM	15.8 µM	7.94 µM	0.631 µM	> 100 µM	–
CN(CCCC(=O)NO)CCCc1nc2ccccc2[nH]1 [DKFZ-805, 4-((3-(Benzimidazol-2-yl)propyl)(methyl)amino)-N-hydroxybutanamide]	10 µM	0.00794 µM	50.1 µM	~39.8 µM	12.6 µM	> 100 µM	–
CN(CCCNC(=O)c1ccccc1)CCCC(=O)NO [DKFZ-806, N-(3-((4-(Hydroxyamino)-4-oxobutyl)(methyl)amino)propyl)benzamide]	25.1 µM	0.02 µM	79.4 µM	50.1 µM	25.1 µM	> 100 µM	–
